System: human microvascular endothelial cells
Experiment: in vitro transwell permeability assay (streptavidin-HRP leakage) with DENV NS1
Assay type: cell-based
Conditions: hyaluronidase 0.5 unit/mL to 50 units/mL added with DENV NS1 3 μg/ml for 6 hours; FIG. 6
From the text: Vascular leakage is an important feature in several diseases, such as septic shock, viral hemorrhagic fever, cancer metastasis and ischemia-reperfusion injuries. Thus, an in vitro endothelial permeability assay will provide insight into the establishment or progression of such diseases. The transwell permeability assays directly detect the penetration of a specific molecule, which can be detected by a spectrometer-based absorbance reader.
The permeability of human microvascular endothelial cells treated or not with DENV NS1 (3 μg/ml, Cat. No. ENZ-PRT105-0100, Enzo Life Sciences, Inc., NY, U.S.A.), was measured by an in vitro transwell permeability assay that mimics human endothelium in vivo (referring to http://www.bio-protocol.org/e2273). In brief, human microvascular endothelial cells (2×10^5) were grown in a 24-Transwell® (pore size: 0.4 μm, Cat. No. 3414; Corning, Kennebunk, Me., U.S.A.) for 5 days until a confluent monolayer was formed. […] Twenty microliters of medium, from each lower chamber, was transferred to a 96-well plate and analyzed for HRP activity by adding 100 μL 3,3′,5,5′-tetramethylbenzidine (TMB) substrate (Sigma-Aldrich, Cat. No. T4444, St. Louis, Mo., U.S.A.). Color development was detected by an EnSpire Multimode Reader (PerkinElmer, Upplands Väsby, Sweden) at 450 nm.

Substance: hyaluronidase
- DENV NS1-induced endothelial hyper-permeability: reverse the DENV NS1-induced endothelial hyper-permeability significantly

Source: patent US11730811B2, “Method for treating subject suffering from flavivirus infection” (priority 2017, dated 2023)
